The values that follow are results of earlier work, collected in patent publication US20230079706A1, “Solid Cleansing Compositions and Methods for the Same” (Colgate-Palmolive Company, priority 2021, published 2023).

The subject of this series is melanin. To be noted: personal care compositions with lower than 2.0 wt % Kojic acid.

The structures appear in SMILES notation.

Turning to `O=c1cc(CO)occ1O` [Kojic acid, 5-Hydroxy-2-(hydroxymethyl)-4H-pyran-4-one], the “Efficacy in the reduction of melanin and/or the inhibition of melanin production” value is “poor to no efficacy”.
